Measured values as given in patent publication EP1482955B1, “PROPHYLACTIC AND THERAPEUTIC TREATMENT OF […] OTHER DISEASES WITH IMMU[…]” (CORIXA CORPORATION, priority 2002, dated 2003).

How the values were obtained:
[1] = tested on: L. monocytogenes 10403 serotype; experiment: Murine Listeria monocytogenes challenge model (induction of non-specific resistance); format: in vivo; details: mice, 1 µg intravenously in 0.2% TEOA two days before intravenous challenge with ~10^5 L. monocytogenes; spleen CFUs two days after challenge
Experimental: This example provides experiments evaluating the induction of non-specific resistance in the murine Listeria monocytogenes challenge model performed using the compounds prepared in examples 1, 2 and 3. Mice (5 per group) were treated intravenously with the 1 µg of a cyclic AGP or MPL solublized in 0.2% triethanolamine (TEOA). Two days later the mice were challenged intravenously with a ~10^5 L. monocytogenes 10403 serotype (stock culture provided by Jory Baldridge, Washington State University, Pullman, WA.). Two days after the challenge the mice were sacrificed and the number of colony forming units (CFUs) in the spleens of individual mice were determined by plating 10-fold serial dilutions of splenic homogenates on tryptic soy agar plates. The degree of protection afforded by a given AGP or MPL was calculated by subtracting the average number of bacteria per spleen (log10 value) in the group of mice treated with a given compound, from the average number of bacteria per spleen (log10 value) in a control group that was "sham" treated with vehicle (0.2% TEOA) prior to challenge with L. monocytogenes.

[2] = tested on: Influenza A/HK/68; experiment: Protection against lethal influenza challenge by prophylactic intranasal administration; format: in vivo; details: BALB/c mice; for protection when compared with the vehicle control: 20 µg intranasally 48 hours prior to challenge (5 LD50), judged by survival, clinical symptoms and prevention of weight loss for 21 days; for survival rate: 20 µg intranasally 48 hours prior to lethal intranasal challenge (5 LD50), followed 21 days
Experimental: This example provides experiments evaluating protection against a lethal challenge with influenza in cyclic AGP-treated mice. BALB/c mice (10 mice per group) were treated intranasally with 20 µg of the compounds of examples 1, 2 and 3, or with MPL, 48 hours prior to an lethal intranasal challenge of Influenza A/HK/68 (5 LD50). Protection was judged by survival, observations of clinical symptoms (ruffled fur, hunched posture and labored breathing), and prevention of weight loss for 21 days following the challenge.

| Compound | protection (average number of bacteria per spleen, log10 value, vehicle control group minus treated group) [1] | protection when compared with the vehicle control [2] | survival rate [2] |
| --- | --- | --- | --- |
| CCCCCCCCCCCC(=O)O[C@H](CCCCCCCCCCC)CC(=O)N[C@H]1[C@H](OC[C@@H]2CCCN2C(=O)C[C@@H](CCCCCCCCCCC)OC(=O)CCCCCCCCCCC)O[C@H](CO)[C@@H](OP(=O)(O)O)[C@@H]1OC(=O)C[C@@H](CCCCCCCCCCC)OC(=O)CCCCCCCCCCC.CCN(CC)CC [Example 2, N-[(R)-3-Dodecanoyloxytetradecanoyl]-(S)-2-pyrrolidinylmethyl 2-Deoxy-4-O-phosphono-2-[(R)-3-dodecanoyloxy-tetradecanoylamino]-3-O-[(R)-3-dodecanoyloxytetradecanoyl]-β-D-glucopyranoside Triethylammonium Salt] | 0.7 log 10 units | enhanced protection | 40% |
| CCCCCCCCCCC[C@H](CC(=O)N[C@H]1[C@H](OC[C@@H]2CCCN2C(=O)C[C@@H](CCCCCCCCCCC)OC(=O)CCCCCCCCC)O[C@H](CO)[C@@H](OP(=O)(O)O)[C@@H]1OC(=O)C[C@@H](CCCCCCCCCCC)OC(=O)CCCCCCCCC)OC(=O)CCCCCCCCC.CCN(CC)CC [Example 3, N-[(R)-3-Decanoyloxytetradecanoyl]-(S)-2-pyrrolidinylmethyl 2-Deoxy-4-O-phosphono-2-[(R)-3-Decanoyloxytetradecanoylamino]-3-O-[(R)-3-Decanoyloxytetradecanoyl]-β-D-glucopyranoside Triethylammonium Salt] | ~ 0.9 log 10 units | enhanced protection | 60% |
| N-[(R)-3-Tetradecanoyloxytetradecanoyl]-(S)-2-pyrrolidinylmethyl 2-Deoxy-4-O-phosphono-2-[(R)-3-tetradecanoyloxytetradecanoylamino]-3-O-[(R)-3-tetradecanoyloxytetradecanoyl]-β-D-glucopyranoside Triethylammonium Salt [Example 1] | 0.2 log 10 units | – | No mice |
